Source: patent publication US9457089B2, “Highly concentrated aqueous protein solution with reduced viscosity” (ADOCIA, priority 2012, dated 2016)
Counter-ions that a name gives are not always drawn.

Legend:
bevacizumab = assay: Viscosity reduction of highly concentrated bevacizumab solution (cone/plate rheometer); assay type: physicochemical; conditions: bevacizumab 220 mg/ml, 150 mM agent
Source text: (§1) For this example, three solutions of monoclonal antibodies, i.e. a solution of bevacizumab (an IgG1 sold under the name Avastin® by Genentech/Hoffmann La Roche), a solution of infliximab (an IgG1/κ sold under the name Remicade® by Schering-Plough) and a solution of trastuzumab (an IgG1/κ sold under the name Herceptin® by Genentech), were concentrated by ultrafiltration on Amicon® Ultra-15 centrifuge filtration units with a cutoff threshold of 50 kDa. The protein concentration of each concentrated solution was measured by UV spectroscopy (absorbance at 280 nm) after dilution of the samples.
(§2) The commercial solution of bevacizumab (25 mg/ml) was concentrated to 268 mg/ml. […] Once reconstituted, the infliximab and trastuzumab formulations were concentrated to, respectively, 183 mg/ml and 243 mg/ml.
(§3) The effect of uridine compared with that of arginine and of NaCl on the viscosity of these three highly concentrated therapeutic protein solutions was then evaluated. For this, the viscosity was measured using a cone/plate rheometer (TA Instruments, AR 2000 Ex, geometry or diameter 20 mm, cone of 0.5131°, solvent trap filled with water) at a temperature of 21° C. and in flow sweep mode with shear rates of between 5000 and 50 s^−1 (3 points per decade-steady-state sensing). All the viscosity values are determined at the level of the Newtonian plateau.
(§4) For this example, the “Protein+Urid”, “Protein+Arg” and “Protein+NaCl” formulations were prepared by mixing one of the previously prepared undine, arginine or NaCl solutions, with Milli-Q® water and with one of the previously prepared concentrated protein solutions so as to achieve a final uridine, arginine or NaCl concentration of 150 mmol/l (mM) and a final protein concentration of 220 mg/ml for bevacizumab, 150 mg/ml for infliximab and 200 mg/ml for trastuzumab. The samples thus prepared were stored at ambient temperature and were analyzed using a rheometer within 24 hours of their preparation.
(§5) The “control” solutions are prepared by dilution in Milli-Q® water, so as to achieve a final protein concentration of 220 mg/ml for bevacizumab, 150 mg/ml for infliximab and 200 mg/ml for trastuzumab.
(§6) The pH of these formulations (“Protein+Urid”, “Protein+Arg” and “Protein+NaCl” and “controls”) is the same as that of the commercial formulation of the corresponding therapeutic protein (table II).
(§7) The results of the measurements relating to this second example are given in table III hereinafter in the form of percentages of viscosity reduction relative to the control solution of therapeutic protein alone, at the same protein concentration as the “Protein+Urid”, “Protein+Arg” or “Protein+NaCl” formulations.
(§8) In this study, the highly concentrated bevacizumab and infliximab solutions used are the same as those which were prepared and used previously. The “Protein+Cyt”, “Protein+Deoxycyt”, “Protein+Urid”, “Protein+Arg”, “Protein+NaCl” and “Protein+ATP” formulations were prepared in the presence of 150 mM of cytidine, of 2′-deoxycytidine, of uridine, of arginine, of NaCl or of sodium salt of adenosine 5′-triphosphate.
(§9) The viscosity of the “Protein+Cyt”, “Protein+Deoxycyt” and “Protein+Urid” formulations was then measured as described in example 2 and compared with that obtained for the “Protein+Arg”, “Protein+NaCl” and “Protein+ATP” formulations. The pH of these formulations is the same as that of the corresponding therapeutic protein formulation, i.e. 6.2±0.2 for bevacizumab and 7.2±0.2 for infliximab.
(§10) The results of the measurements relating to this example are given in tables IV and V hereinafter in the form of percentages of viscosity reduction relative to the control solution of therapeutic protein alone, at the same protein concentration as the “Protein+Cyt”, “Protein+Deoxycyt”, “Protein+Urid”, “Protein+Arg”, “Protein+NaCl” and “Protein+ATP” formulations.

infliximab = assay: Viscosity reduction of highly concentrated infliximab solution (cone/plate rheometer); assay type: physicochemical; conditions: for % viscosity reduction relative to the control infliximab solution: pH 7.2±0.2
Source text: as §1, §2, §3
The samples thus prepared were stored at ambient temperature and were analyzed using a rheometer within 24 hours of their preparation. […]
as §6, §7, §8, §9, §10
The highly concentrated infliximab solution used is the same as that which was prepared previously. The “Protein+Cyt” and “Protein+Arg” formulations were prepared in the presence of 150 mM of cytidine or of arginine and with infliximab concentrations decreasing from 150 mg/ml to 80 mg/ml.
The pH of these formulations is the same as that of the commercial infliximab formulation, i.e. 7.2±0.2. The viscosity of the formulations thus prepared was measured as described in example 2.
The results of the measurements relating to this example are given in table VI hereinafter in the form of percentages of viscosity reduction relative to the control Infliximab solution.
The highly concentrated infliximab solution used is the same as that which was prepared and used previously. […]

trastuzumab = assay: Viscosity reduction of highly concentrated trastuzumab solution (cone/plate rheometer); assay type: physicochemical; conditions: trastuzumab 200 mg/ml, 150 mM agent, pH 6.0±0.2, 21° C. (Table III)
Source text: as §1, §2, §3, §4, §5, §6, §7

[1] = cited from earlier work
[2] = infliximab 150 mg/ml, 150 mM agent
[3] = infliximab 150 mg/ml, 150 mM agent, pH 7.2±0.2 (Table V)
[4] = Infliximab 105 mg/ml, 50 mM agent, pH 7.2
[5] = Infliximab 105 mg/ml, 150 mM agent, pH 7.2 (Table VII)
[6] = Infliximab 105 mg/ml, 300 mM agent, pH 7.2
[7] = infliximab 80 mg/ml, 150 mM agent
[8] = infliximab 105 mg/ml, 150 mM agent
[9] = infliximab 125 mg/ml, 150 mM agent
[10] = infliximab 140 mg/ml, 150 mM agent
[11] = infliximab 150 mg/ml, 150 mM agent, pH 7.2±0.2, 21° C. (Table III)

Nc1ncnc2c1ncn2[C@@H]1O[C@H](COP(=O)(O)OP(=O)(O)OP(=O)(O)O)C(O)C1O (stereo partly drawn) [ATP, Sodium salt of adenosine 5′-triphosphate]
effect on the viscosity of bevacizumab (in words) (bevacizumab): does not make it possible to reduce the viscosity
increase of the viscosity of bevacizumab (bevacizumab): 14%
% viscosity reduction relative to the “protein alone” control (bevacizumab; pH 6.2±0.2 (Table IV)): −14%
effect on the viscosity of bevacizumab (in words) (bevacizumab; listed as sodium salt of adenosine 5′-triphosphate): does not make it possible, a fortiori, to reduce the viscosity
effect on the viscosity of infliximab (in words) (infliximab; [2]): does not make it possible to reduce the viscosity
% viscosity reduction relative to the “protein alone” control (infliximab; [3]): 0%

Cl.N=C(N)NCCC[C@H](N)C(=O)O [Arg, L-arginine hydrochloride salt]
% viscosity reduction relative to the “protein alone” control (bevacizumab; pH 6.2±0.2 (Table IV)): 46%
% viscosity reduction relative to the “protein alone” control (bevacizumab; pH 6.2±0.2, 21° C. (Table III)): 46%
% viscosity reduction relative to the “protein alone” control (trastuzumab): 48%
% viscosity reduction relative to the “protein alone” control (infliximab; [4]): 32%
% viscosity reduction relative to the “protein alone” control (infliximab; [5]): 46%
% viscosity reduction relative to the “protein alone” control (infliximab; [6]): 58%
% viscosity reduction relative to the control infliximab solution (infliximab; [7]): 36%
% viscosity reduction relative to the control infliximab solution (infliximab; [8]): 47%
% viscosity reduction relative to the control infliximab solution (infliximab; [9]): 46%
% viscosity reduction relative to the control infliximab solution (infliximab; [10]): 59%
% viscosity reduction relative to the control infliximab solution (infliximab; [2]): 55%
% viscosity reduction relative to the “protein alone” control (infliximab; [3]): 55%
% viscosity reduction relative to the “protein alone” control (infliximab; [11]): 55%

Nc1ccn([C@@H]2O[C@H](CO)[C@@H](O)[C@H]2O)c(=O)n1 [Cyt, Cytidine]
% viscosity reduction relative to the “protein alone” control (bevacizumab; pH 6.2±0.2 (Table IV)): 43%
% viscosity reduction relative to the “protein alone” control (infliximab; [4]): 39%
% viscosity reduction relative to the “protein alone” control (infliximab; [5]): 68%
% viscosity reduction relative to the “protein alone” control (infliximab; [6]): 72%
% viscosity reduction relative to the control infliximab solution (infliximab; [7]): 58%
% viscosity reduction relative to the control infliximab solution (infliximab; [8]): 68%
% viscosity reduction relative to the control infliximab solution (infliximab; [9]): 69%
% viscosity reduction relative to the control infliximab solution (infliximab; [10]): 77%
% viscosity reduction relative to the control infliximab solution (infliximab; [2]): 76%
% viscosity reduction relative to the “protein alone” control (infliximab; [3]): 76%

Nc1ccn([C@H]2C[C@H](O)[C@@H](CO)O2)c(=O)n1 [Deoxycyt, 2′-Deoxycytidine]
% viscosity reduction relative to the “protein alone” control (bevacizumab; pH 6.2±0.2 (Table IV)): 51%
% viscosity reduction relative to the “protein alone” control (infliximab; [3]): 75%

[Cl-].[Na+] [NaCl, Sodium chloride]
% viscosity reduction relative to the “protein alone” control (bevacizumab; pH 6.2±0.2 (Table IV)): 24%
% viscosity reduction relative to the “protein alone” control (bevacizumab; pH 6.2±0.2, 21° C. (Table III)): 24%
% viscosity reduction relative to the “protein alone” control (trastuzumab): 34%
% viscosity reduction relative to the “protein alone” control (infliximab; [4]): 20%
% viscosity reduction relative to the “protein alone” control (infliximab; [5]): −6%
% viscosity reduction relative to the “protein alone” control (infliximab; [6]): −90%
% viscosity reduction relative to the “protein alone” control (infliximab; [3]): 6%
% viscosity reduction relative to the “protein alone” control (infliximab; [11]): 6%

O=c1ccn([C@@H]2O[C@H](CO)[C@@H](O)[C@H]2O)c(=O)[nH]1 [Urid, Uridine]
% viscosity reduction relative to the “protein alone” control (bevacizumab; pH 6.2±0.2 (Table IV)): 64%
% viscosity reduction relative to the “protein alone” control (bevacizumab; pH 6.2±0.2, 21° C. (Table III)): 64%
% viscosity reduction relative to the “protein alone” control (bevacizumab; pH 6.2±0.2, 21° C. (Table III), listed as uridine): 64%
% viscosity reduction relative to the “protein alone” control (trastuzumab): 35%
% viscosity reduction relative to the “protein alone” control (trastuzumab; listed as uridine): 35%
% viscosity reduction relative to the “protein alone” control (infliximab; [3]): 70%
% viscosity reduction relative to the “protein alone” control (infliximab; [11]): 70%
% viscosity reduction relative to the “protein alone” control (infliximab; infliximab 150 mg/ml, 150 mM agent, pH 7.2±0.2, 21° C. (Table III), listed as uridine): 70%

Nc1nc2c(ncn2[C@@H]2O[C@H](CO)[C@@H](O)[C@H]2O)c(=O)[nH]1 [guanosine]
solubility (in words) [1]: very poor solubility
